According to US20100003228A1, “T-CELL VACCINE” (priority 2006, published 2010):

Experiments:
Assay type in all cases: cell-based, human
[1] = tested on: myelin reactive T cells in PBMCs; assay: EAA with positivity by Variance Evaluation Method or CPM Variance Method (clinical trials); details: clinical trial population, RR-MS or CIS subjects
Excerpt: The predetermined value may also be calculated using a Variance Evaluation Method as follows: • 1. EAAs may be run on a given patient population (minimum of 120 assays from 120 unique subjects) • 2. A “negative population” may be created by averaging all SI values<2.5 • 3. The Standard Deviation (SD) may be calculated for each peptide • 4. The following for each peptide may be then be calculated: • a. Average+1SD • b. Average+2SD • c. Average+3SD • 5. The following SIs may be considered above the predetermined value: • a. SI greater than or equal to the average+3SD • b. Any SI greater than or equal to 2.5
The predetermined value may also be evaluated using a Counts per Minute (CPM) Variance Method. This algorithm may set a comprehensive cutoff for all peptides within a given assay. It may be calculated as follows: • 1. EAAs may be run and the CPM for all control (media only, no antigen) wells averaged. • 2. The SD for CPM of the control wells may then be calculated. • 3. The following may then be calculated for the control wells: • a. Average+1SD • b. Average+2SD • c. Average+3SD • 4. Any peptide with an average CPM greater than or equal to the average+3SD of the control wells may be considered above the predetermined value.
Any peptide, either analyzed in an individual well or as averaged over wells run in triplicate, with an SI≧2.5, an SI≧average+3SD by the Variance Evaluation Method, or an SI≧average+3SD by the CPM variance method may be considered above the predetermined value, which may indicate a T cell(s) positive for reactivity to a peptide.
The peptides of Example 3 have been tested in 429 EAAs in clinical trials as follows. […] Pre-Vaccine EAAs have 158 positive out of 387 assays (40.8%), with Relapse Remitting MS patients (RRMS) showing 150 positive of 368 assays (40.8%), and Clinically Isolated Syndrome (CIS) patients showing 8 positive of 19 assays (42.1%).
Over the course of 6 months a study was conducted with 120 subjects meeting the criteria for the clinical trial.
The above mentioned population of subjects was evaluated by EAA using the Variance Evaluation Method and CPM Variance Method as described above, and deemed eligible for vaccine production. Of the 120 attempts to manufacture vaccine, there were 2 shipping failures (blood was not received within our stated criteria), 1 culture was lost to contamination and 5 samples arrived with low cell volume/yield. Of the remaining 112 subjects, vaccine was successfully generated in 89 subjects, with 22 still in production (98.9% of eligible samples, 92.5% of all samples completed). From this, a positive EAA was deemed predictive of the ability to manufacture a vaccine to therapeutic dose by methods disclosed herein.

[2] = tested on: T cell receptor variable beta chain usage (Vβ); assay: TCR V beta analysis of peptide-stimulated T cell line by flow cytometry; details: Day 9 to Day 16 in culture, FIG. 10
Experimental: Enrichment of T cell subsets was evaluated by analyzing the T cell receptor variable beta chain usage (Vβ). The 24 different known beta chain variable (Vβ) region families were evaluated using specific fluorescent-labeled monoclonal antibodies and flow cytometry. If a particular subset of T cells is selectively expanded by stimulation with a peptide, an increase would be detected in the percentage of cells expressing one of the V beta families as that subset expands.
[…] A T cell line was produced by stimulating the patient's PBMCs with peptide mix MBPm10, which had produced an SI of 4.6 in the original EAA for this patient. […] This mix was used to stimulate PBMCs from this patient in culture.

[3] = tested on: myelin reactive T cells in PBMCs; assay: Epitope Analysis Assay (EAA): PBMC stimulation with myelin peptide mixes, tritiated thymidine incorporation, SI of at least 3 positive; details: patient of Example 8, FIG. 8
Experimental: The SI may be calculated by comparing [^3H] thymidine incorporation of the sample in the presence of a peptide comprising a portion of an MRTC polypeptide target to that in the presence of a media only control. Briefly, separate aliquots of the sample are plated and incubated in the presence of either a peptide comprising a portion of the polypeptide or a media only control in order to stimulate reactive T cells. The cultures are pulsed with [^3H] thymidine during the last 6-18 hours of incubation. The SI is calculated as the quotient of the mean counts per minute (cpm) of the antigen aliquots/mean cpm of the control aliquots. The SI of autoreactive T cells may be increased by at least a factor of 1.3, 1.4, 1.5, 1.6, 1.7, 1.8, 1.9, 2.0, 2.1, 2.2, 2.3, 2.4, 2.5, 2.6, 2.7. 2.8, 2.9, 3.0, 3.1, 3.2, 3.3, 3.4, 3.5, 3.6, 3.7, 3.8, 3.9, or 4.0 compared to a control.
The peptides in Example 2 were tested in an in vitro PBMC stimulation assay to identify myelin reactive T cells in a patient's blood. Peripheral blood mononuclear cells (PBMCs) were separated from whole blood, washed, counted and plated at 250,000 cells per well in a total of four 96-well plates. Myelin peptide mixes of two overlapping 16-mer peptides were added to triplicate wells of PBMCs with triplicate media only control wells included on each plate and then incubated. After two days of incubation, 20 U/ml of interleukin-2 (IL-2) was added. On the fifth day, the plates were labeled with a radioisotope (tritiated thymidine) and harvested 6 hours later. In this assay, the cells that incorporate tritiated thymidine are representative of T cells being activated and induced to proliferate by the T cell receptor-peptide-MHC complexes. T cells incorporating comparatively more tritiated thymidine than control and experimental cells are more highly activated T cells and are proliferating more rapidly.
Stimulation Indices (SI) were determined for each peptide mix by dividing the mean radiolabel counts per minute (CPM) of the peptide stimulated wells by the mean CPM of the media only control wells averaged across all four plates. An SI of at least 3 was considered positive. FIG. 1 is an example of EAA from one MS patient. Seven of the peptide mixtures were slightly reactive, with the MOGm15 stimulated wells being very reactive. FIGS. 2-4 show the frequency of reactivity to the peptide mixes in 48 patients.

[4] = tested on: PBMCs / T cells; assay: Growth analysis of T cell lines stimulated with EAA-selected peptide mixes; details: from 15 million PBMCs, in 20 days, 3 stimulations
Experimental: Patient-specific peptides identified by EAA were tested to determine whether they could be used to produce and expand myelin-reactive T-cells for use in a vaccine. A 500 ml bag of blood was obtained from the patient to set up vaccine production cultures. Bulk cultures were set up in AIM V medium along with the optimized peptides. After 48 hours of incubation, rIL-2 was added at 20 U/ml. Seven days later, the cultures were re-stimulated with PBMCs and peptide. The media was changed to 2% AB serum with 100 U/ml rIL2 in X Vivo 15 medium. The cultures were fed and split every 1-4 days as necessary. After an additional seven days, the cultures were once again stimulated with APCs and peptides. The cultures were continued to be fed and split every 1-4 days as necessary. After an additional 7-14 days, the cultures had expanded to at least 100×10^6 cells. The cells were divided into aliquots of 10×10^6 cells and frozen.
The ability of stimulation with the EAA-selected peptides to more rapidly expand the stimulated the T cells were tested. The cell growth curves were analyzed for two different stimulatory peptide mixes. The EAA CPM data shown in FIG. 8 show a strongly reactive mix in MBPm19 for a patient with an SI of 4.7. […] These two peptides mixes were then used to stimulate PBMCs from this patient to produce T cell lines. […]

| Substance | # of Subjects (frequency of identification) [1] | % of Subjects (frequency of identification) [1] | TCR V beta focusing [2] | Stimulation Index (SI) [3] | T cells after expansion [4] |
| --- | --- | --- | --- | --- | --- |
| PLPm27: mix of PLP 53 and PLP 54 (chain 1 VLPWNAFPGKVCGSNL; chain 2 NAFPGKVCGSNLLSIC) | 6 | 5.0% | V beta chain 5-5 is expanding |  |  |
| PLPm33: mix of PLP 65 and PLP 66 (chain 1 FMIAATYNFAVLKLMG; chain 2 ATYNFAVLKLMGRGTK) | 11 | 9.2% |  | 17.9 | 200 million T cells |
